Experimental data taken from patent US8569344B2, “N-piperidinyl acetamide derivatives as calcium channel blockers” (Zalicus Pharmaceuticals Ltd., priority 2008, dated 2013).

Molecular target: T1, human α1H T-type channels (Homo sapiens, UniProt O95180)
T1 construct: expressed in transfected cells; host or cells: HEK 293
Assay: T-type calcium channel block, whole cell patch clamp in HEK cells (α1H)
Assay type: cell-based
Settings: HEK cells, patch clamp, mainly non-inactivated protocol; values above 10 μM shown as 10 μM; read-out: T-type Calcium Channel Block α1H IC50
Experimental: T-type calcium channel blocking activity was assayed in human embryonic kidney cells, HEK 293, stably transfected with the T-type calcium channel subunits. Briefly, cells were cultured in Dulbecco's modified eagle medium (DMEM) supplemented with 10% fetal bovine serum, 200 U/ml penicillin and 0.2 mg/ml streptomycin at 37° C. with 5% CO2. At 85% confluency cells were split with 0.25% trypsin/1 mM EDTA and plated at 10% confluency on glass coverslips. […] Fresh DMEM was supplied and the cells transferred to 28° C./5% CO2. Cells were incubated for 1 to 2 days prior to whole cell recording.
Standard patch-clamp techniques were employed to identify blockers of T-type currents. Briefly, previously described HEK cell lines stably expressing human α1G, α1H and α1I T-type channels were used for all the recordings (passage #: 4-20, 37° C., 5% CO2). Whole cell patch clamp experiments were performed using an Axopatch 200B amplifier (Axon Instruments, Burlingame, Calif.) linked to a personal computer equipped with pCLAMP software. Data were analyzed using Clampfit (Axon Instruments) and SigmaPlot 4.0 (Jandel Scientific). To obtain T-type currents, plastic dishes containing semi-confluent cells were positioned on the stage of a ZEISS AXIOVERT S100 microscope after replacing the culture medium with external solution (see below). Whole-cell patches were obtained using pipettes (borosilicate glass with filament, O.D.: 1.5 mm, I.D.: 0.86 mm, 10 cm length), fabricated on a SUTTER P-97 puller with resistance values of ˜5 MΩ (see below for internal solution).
In the non-inactivating protocol, the holding potential is set at −110 mV and with a pre-pulse at −100 mV for 1 second prior to the test pulse at −40 mV for 50 ms.
Test compounds were dissolved in external solution, 0.1-0.01% DMSO. After ˜10 min rest, they were applied by gravity close to the cell using a WPI microfil tubing. The “non-inactivated” pre-pulse was used to examine the resting block of a compound. The “inactivated” protocol was employed to study voltage-dependent block. […] Values are shown in μM and values above 10 μM are simply represented as 10 μM.

T1 sequence (O95180 whole entry): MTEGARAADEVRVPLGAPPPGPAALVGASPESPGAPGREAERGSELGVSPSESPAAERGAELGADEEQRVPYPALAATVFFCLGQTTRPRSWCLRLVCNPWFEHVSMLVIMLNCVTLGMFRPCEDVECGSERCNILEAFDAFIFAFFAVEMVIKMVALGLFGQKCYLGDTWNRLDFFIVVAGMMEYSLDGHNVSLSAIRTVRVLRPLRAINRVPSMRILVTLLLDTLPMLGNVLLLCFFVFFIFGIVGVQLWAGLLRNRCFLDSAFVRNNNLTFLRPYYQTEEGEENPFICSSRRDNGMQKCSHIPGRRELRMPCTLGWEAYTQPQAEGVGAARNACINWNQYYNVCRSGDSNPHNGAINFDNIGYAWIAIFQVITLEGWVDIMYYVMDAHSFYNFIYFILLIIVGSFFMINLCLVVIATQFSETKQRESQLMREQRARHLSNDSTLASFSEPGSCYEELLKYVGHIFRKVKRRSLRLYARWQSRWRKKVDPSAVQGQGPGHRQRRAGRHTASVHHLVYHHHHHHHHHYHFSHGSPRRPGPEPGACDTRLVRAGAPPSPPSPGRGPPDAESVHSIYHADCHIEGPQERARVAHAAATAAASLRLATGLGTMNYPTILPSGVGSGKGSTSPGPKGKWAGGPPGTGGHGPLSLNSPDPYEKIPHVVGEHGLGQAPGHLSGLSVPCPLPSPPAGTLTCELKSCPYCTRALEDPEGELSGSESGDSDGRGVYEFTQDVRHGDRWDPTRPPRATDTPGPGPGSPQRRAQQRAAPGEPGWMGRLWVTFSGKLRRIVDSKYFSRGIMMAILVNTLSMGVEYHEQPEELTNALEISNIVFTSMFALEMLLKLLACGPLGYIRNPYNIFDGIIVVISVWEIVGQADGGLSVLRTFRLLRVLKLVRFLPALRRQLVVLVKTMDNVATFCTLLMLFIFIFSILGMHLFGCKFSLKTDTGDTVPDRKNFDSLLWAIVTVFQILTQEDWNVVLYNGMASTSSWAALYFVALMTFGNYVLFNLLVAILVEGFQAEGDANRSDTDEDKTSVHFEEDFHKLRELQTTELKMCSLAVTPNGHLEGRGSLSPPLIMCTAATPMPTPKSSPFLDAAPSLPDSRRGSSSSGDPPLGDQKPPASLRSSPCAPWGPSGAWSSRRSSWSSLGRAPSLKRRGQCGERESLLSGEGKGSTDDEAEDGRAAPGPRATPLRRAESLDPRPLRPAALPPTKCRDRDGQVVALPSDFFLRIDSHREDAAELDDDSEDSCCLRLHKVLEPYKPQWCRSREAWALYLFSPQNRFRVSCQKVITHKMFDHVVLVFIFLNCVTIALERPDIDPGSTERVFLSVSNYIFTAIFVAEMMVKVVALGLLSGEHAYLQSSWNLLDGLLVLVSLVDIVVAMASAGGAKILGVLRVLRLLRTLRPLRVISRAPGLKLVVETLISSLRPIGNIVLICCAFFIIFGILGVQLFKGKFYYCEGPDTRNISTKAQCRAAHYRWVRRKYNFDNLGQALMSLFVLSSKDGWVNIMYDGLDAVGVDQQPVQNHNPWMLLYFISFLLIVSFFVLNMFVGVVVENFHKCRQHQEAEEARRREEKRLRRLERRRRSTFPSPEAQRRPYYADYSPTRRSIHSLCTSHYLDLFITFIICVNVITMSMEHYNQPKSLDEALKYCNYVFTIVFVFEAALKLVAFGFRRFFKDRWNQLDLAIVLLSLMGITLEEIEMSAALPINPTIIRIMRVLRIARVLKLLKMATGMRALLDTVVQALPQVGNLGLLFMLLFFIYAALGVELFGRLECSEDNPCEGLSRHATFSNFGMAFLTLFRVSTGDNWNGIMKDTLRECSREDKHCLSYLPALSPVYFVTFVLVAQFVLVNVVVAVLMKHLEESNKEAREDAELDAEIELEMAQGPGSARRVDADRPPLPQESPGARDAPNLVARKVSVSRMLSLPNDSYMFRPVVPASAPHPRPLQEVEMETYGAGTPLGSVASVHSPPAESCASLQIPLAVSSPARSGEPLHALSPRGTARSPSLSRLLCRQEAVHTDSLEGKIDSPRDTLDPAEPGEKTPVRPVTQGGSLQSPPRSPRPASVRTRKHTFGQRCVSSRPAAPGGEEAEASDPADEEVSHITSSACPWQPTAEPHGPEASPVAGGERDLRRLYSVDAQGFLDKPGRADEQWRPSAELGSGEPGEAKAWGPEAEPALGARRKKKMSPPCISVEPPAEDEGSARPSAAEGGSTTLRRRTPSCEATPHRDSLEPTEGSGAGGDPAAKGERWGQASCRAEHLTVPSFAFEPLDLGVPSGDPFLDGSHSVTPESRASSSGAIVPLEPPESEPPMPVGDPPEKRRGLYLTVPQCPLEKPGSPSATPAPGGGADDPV

IC50 [nM] | Compound
100 | C[C@H]1CC[C@H](NC(=O)CN2CCC(CNC(=O)c3cc(C(F)(F)F)cc(C(F)(F)F)c3)CC2)CC1 [Compound 97, N-((1-(2-((1r,4r)-4-methylcyclo-hexylamino)-2-oxoethyl)piperidin-4-yl)methyl)-3,5-bis(trifluoromethyl) benzamide]
1210 | COC1CCN(C(=O)CN2CCC(CNC(=O)c3cc(C(F)(F)F)cc(C(F)(F)F)c3)CC2)CC1 [Compound 103, N-((1-(2-(4-methoxypiperidin-1-yl)-2-oxoethyl)piperidin-4-yl)methyl)-3,5-bis(trifluoromethyl)benzamide]
280 | CCC1CCCN1C(=O)CN1CCC(CNC(=O)c2cc(C(F)(F)F)cc(C(F)(F)F)c2)CC1 (centres unmarked) [Compound 105, N-((1-(2-(2-ethylpyrrolidin-1-yl)-2-oxoethyl)piperidin-4-yl)methyl)-3,5-bis(trifluoromethyl)benzamide]
160 | O=C(NCC1CCN(CC(=O)N2CCCC2C(F)(F)F)CC1)c1cc(C(F)(F)F)cc(C(F)(F)F)c1 (centres unmarked) [Compound 107, N-((1-(2-oxo-2-(2-(trifluoromethyl)pyrrolidin-1-yl)ethyl)piperidin-4-yl)methyl)-3,5-bis(trifluoromethyl) benzamide]
> 10000 | O=C(CC1CCN(C(=O)C2(O)CCNCC2)CC1)Nc1cc(C(F)(F)F)cc(C(F)(F)F)c1 [Compound 157, N-(3,5-bis(trifluoromethyl)phenyl)-2-(1-(4-hydroxypiperidine-4-carbonyl)piperidin-4-yl)acetamide]
> 10000 | O=C(NCC1CCN(C(=O)CN2CC[C@@H](O)C2)CC1)c1cc(C(F)(F)F)cc(C(F)(F)F)c1 [Compound 263, (R)-N-((1-(2-(3-hydroxypyrrolidin-1-yl)acetyl)piperidin-4-yl)methyl)-3,5-bis(trifluoromethyl)benzamide]
> 10000 | O=C(NCC1CCN(C(=O)CNC2CC2)CC1)c1cc(F)cc(C(F)(F)F)c1 [Compound 284, N-((1-(2-(cyclopropylamino)acetyl)piperidin-4-yl)methyl)-3-fluoro-5-(trifluoromethyl)benzamide]
> 10000 | O=C(NCC1CCN(CCN2CCCC2=O)CC1)c1cc(F)cc(C(F)(F)F)c1 [Compound 487, 3-fluoro-N-((1-(2-(2-oxopyrrolidin-1-yl)ethyl)piperidin-4-yl)methyl)-5-(trifluoromethyl)benzamide]
> 10000 | CS(=O)(=O)c1cc(C(=O)NCC2CCN(CC(=O)N3CCC[C@@H]3C(F)(F)F)CC2)cc(C(F)(F)F)c1 [Compound 589, (R)-3-(methylsulfonyl)-N-((1-(2-oxo-2-(2-(trifluoromethyl)pyrrolidin-1-yl)ethyl)piperidin-4-yl)methyl)-5-(trifluoromethyl) benzamide]
170 | COc1cc(Cl)cc(C(=O)NCC2CCN(CC(=O)N(C)C3(C)CCC3)CC2)c1 [Compound 591, 3-chloro-5-methoxy-N-((1-(2-(methyl(1-methylcyclobutyl)amino)-2-oxoethyl)piperidin-4-yl)methyl)benzamide]
80 | CN(C(=O)CN1CCC(CNC(=O)c2cc(Cl)cc(Cl)c2)CC1)C1(C)CCC1 [Compound 592, 3,5-dichloro-N-((1-(2-(methyl(1-methylcyclobutyl)amino)-2-oxoethyl)piperidin-4-yl)methyl) benzamide]
80 | CN(C(=O)CN1CCC(CNC(=O)c2cc(Cl)cc(Br)c2)CC1)C1(C)CCC1 [Compound 595, 3-bromo-5-chloro-N-((1-(2-(methyl(1-methylcyclobutyl)amino)-2-oxoethyl)piperidin-4-yl)methyl)benzamide]
1650 | CC(C)(C)OC(=O)N1CCC(O)(CN2CCC(CNC(=O)c3cc(F)cc(Cl)c3)CC2)CC1 [Compound 598, tert-butyl 4-((4-((3-chloro-5-fluorobenzamido)methyl)piperidin-1-yl)methyl)-4-hydroxypiperidine-1-carboxylate]
1470 | CC(C)(C)OC(=O)N1CCC(O)(CN2CCC(CNC(=O)c3cc(F)cc(C(F)(F)F)c3)CC2)CC1 [Compound 599, tert-butyl 4-((4-((3-fluoro-5-(trifluoromethyl)benzamido)methyl)piperidin-1-yl)methyl)-4-hydroxy-piperidine-1-carboxylate]
1870 | O=C(NCC1CCN(C2CN(C(=O)c3cc(Cl)cc(Cl)c3)C2)CC1)c1cc(F)cc(Cl)c1 [Compound 601, 3-chloro-N-((1-(1-(3,5-dichlorobenzoyl)azetidin-3-yl)piperidin-4-yl)methyl)-5-fluoro-benzamide]
2410 | O=C(NCC1CCN(C2CN(C(=O)c3cccc(Br)c3)C2)CC1)c1cc(F)cc(Cl)c1 [Compound 602, N-((1-(1-(3-bromobenzoyl)azetidin-3-yl)piperidin-4-yl)methyl)-3-chloro-5-fluorobenzamide]
810 | O=C(NCC1CCN(C2CN(C(=O)c3cccc(OC(F)(F)F)c3)C2)CC1)c1cc(F)cc(Cl)c1 [Compound 603, 3-chloro-5-fluoro-N-((1-(1-(3-(trifluoromethoxy)benzoyl)azetidin-3-yl)piperidin-4-yl)methyl)benzamide]

The next lines start with the compound.

Compound | IC50 [nM]
O=C(NCC1CCN(CC(=O)N2CCCC(O)C2)CC1)c1cc(C(F)(F)F)cc(C(F)(F)F)c1 (centres unmarked) [Compound 98, N-((1-(2-(3-hydroxypiperidin-1-yl)-2-oxoethyl)piperidin-4-yl)methyl)-3,5-bis(trifluoromethyl)benzamide] | 3600
CC1CCCN(C(=O)CN2CCC(CNC(=O)c3cc(C(F)(F)F)cc(C(F)(F)F)c3)CC2)C1 (centres unmarked) [Compound 99, N-((1-(2-(3-methylpiperidin-1-yl)-2-oxoethyl)piperidin-4-yl)methyl)-3,5-bis(trifluoromethyl)benzamide] | 210
CCC1CCCCN1C(=O)CN1CCC(CNC(=O)c2cc(C(F)(F)F)cc(C(F)(F)F)c2)CC1 (centres unmarked) [Compound 100, N-((1-(2-(2-ethylpiperidin-1-yl)-2-oxoethyl)piperidin-4-yl)methyl)-3,5-bis(trifluoromethyl)benzamide] | 100
CN(C(=O)CN1CCC(CNC(=O)c2cc(C(F)(F)F)cc(C(F)(F)F)c2)CC1)C1CCCCC1 [Compound 101, N-((1-(2-(cyclohexyl(methyl)amino)-2-oxoethyl)piperidin-4-yl)methyl)-3,5-bis(trifluoromethyl)benzamide] | 140
O=C(NCC1CCN(CC(=O)N2CCC(O)CC2)CC1)c1cc(C(F)(F)F)cc(C(F)(F)F)c1 [Compound 102, N-((1-(2-(4-hydroxypiperidin-1-yl)-2-oxoethyl)piperidin-4-yl)methyl)-3,5-bis(trifluoromethyl)benzamide] | > 10000
C[C@@H]1CCCCN1C(=O)CN1CCC(CNC(=O)c2cc(C(F)(F)F)cc(C(F)(F)F)c2)CC1 [Compound 104, (R)-N-((1-(2-(2-methylpiperidin-1-yl)-2-oxoethyl)piperidin-4-yl)methyl)-3,5-bis(trifluoromethyl)benzamide] | 140
O=C(NCC1CCN(CC(=O)N2CCC(CO)CC2)CC1)c1cc(C(F)(F)F)cc(C(F)(F)F)c1 [Compound 106, N-((1-(2-(4-(hydroxymethyl)piperidin-1-yl)-2-oxoethyl)piperidin-4-yl)methyl)-3,5-bis(trifluoromethyl)benzamide] | 5560
O=C(NCC1CCN(CC(=O)N2CCC(C(F)(F)F)CC2)CC1)c1cc(C(F)(F)F)cc(C(F)(F)F)c1 [Compound 108, N-((1-(2-oxo-2-(4-(trifluoromethyl)piperidin-1-yl)ethyl)piperidin-4-yl)methyl)-3,5-bis(trifluoromethyl) benzamide] | 250
CN(C(=O)CN1CCC(CNC(=O)c2cccc(Br)c2)CC1)C1(C)CCC1 [Compound 593, 3-bromo-N-((1-(2-(methyl(1-methylcyclobutyl)amino)-2-oxoethyl)piperidin-4-yl)methyl) benzamide] | 260
COc1cc(Cl)cc(C(=O)NCC2CCN(CC(=O)N(C)C(C)(C)C)CC2)c1 [Compound 596, N-((1-(2-(tert-butyl(methyl)amino)-2-oxoethyl)piperidin-4-yl)methyl)-3-chloro-5-methoxy-benzamide] | 160
CC(C)(C)OC(=O)N1CC(N2CCC(CNC(=O)c3cc(F)cc(Cl)c3)CC2)C1 [Compound 597, tert-buyl 3-(4-((3-chloro-5-fluorobenzamido)methyl)piperidin-1-yl)azetidine-1-carboxylate] | 6520
COc1cc(Cl)cc(C(=O)N2CC(N3CCC(CNC(=O)c4cc(F)cc(Cl)c4)CC3)C2)c1 [Compound 600, 3-chloro-N-((1-(1-(3-chloro-5-methoxybenzoyl)azetidin-3-yl)piperidin-4-yl)methyl)-5-fluoro-benzamide] | 2050
